# Reference: US12077503B2, “Substituted cyclic amides and their use as herbicides” (FMC CORPORATION, priority 2015, dated 2024)
# How the values were obtained:
# Format in all cases: in vivo
# [1] = system: sedge, umbrella (small-flower umbrella sedge, Cyperus difformis); assay: Test B flooded paddy test; details: Cyperus difformis, 250 g ai/ha, Flood; 0 to 100 scale where 0 is no effect and 100 is complete control; read-out: Sedge, Umbrella plant response rating
# How it was run: (§1)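 Greenhouse paddy pots with 2-leaf stage plants received compound by direct addition to floodwater 3 cm deep, kept at that level. Scored visually at 13–15 d versus controls (0 no effect; 100 complete control).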
# [2] = system: barnyardgrass (Echinochloa crus-galli); assay: Test B flooded paddy test; details: Echinochloa crus-galli, 250 g ai/ha, Flood; 0 to 100 scale where 0 is no effect and 100 is complete control; read-out: Barnyardgrass plant response rating
# How it was run: as §1
# rice (Oryra sativa) = assay: Test B flooded paddy test; details: Oryza sativa, 250 g ai/ha, Flood; 0 to 100 scale where 0 is no effect and 100 is complete control; read-out: Rice plant response rating
# How it was run: as §1
# [3] = system: ducksalad (Heteranthera limosa); assay: Test B flooded paddy test; details: Heteranthera limosa, 250 g ai/ha, Flood; 0 to 100 scale where 0 is no effect and 100 is complete control; read-out: Ducksalad plant response rating
# How it was run: as §1
# [4] = system: ryegrass, Italian (Italian ryegrass, Lolium multiflorum); assay: Test A postemergence; details: Lolium multiflorum, post-emergence, 240 h, Postemergence, read-out: Plant response rating, Ryegrass, Italian
# How it was run: (§2)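 In a loam soil and sand blend, planted seeds got a preemergence directed soil spray, and young plants at the one- to two-leaf stage, 2–10 cm high, got a postemergence application; ~10 d greenhouse hold; injury rated visually, 0 = none, 100 = complete control.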
# [5] = system: ragweed (common ragweed, Ambrosia elatior); assay: Test A postemergence; details: Ambrosia artemisiifolia, post-emergence, 240 h, Postemergence, read-out: Plant response rating, Ragweed
# How it was run: as §2
# [6] = system: Galium (catchweed bedstraw, Galium aparine); assay: Test A postemergence; details: Galium, post-emergence, 240 h, Postemergence, read-out: Plant response rating, Galium
# How it was run: as §2
# [7] = system: barnyardgrass (Echinochloa crus-galli); assay: Test A postemergence; details: Echinochloa crus-galli, post-emergence, 240 h, Postemergence, read-out: Plant response rating, Barnyardgrass
# How it was run: as §2
# [8] = system: giant foxtail (Setaria faberii); assay: Test A postemergence; details: Setaria faberi, post-emergence, 240 h, Postemergence, read-out: Plant response rating, Foxtail, Giant
# How it was run: as §2
# [9] = system: blackgrass (Alopecurus myosuroides); assay: Test A postemergence; details: Alopecurus myosuroides, post-emergence, 240 h, Postemergence, read-out: Plant response rating, Blackgrass
# How it was run: as §2
# Kochia (Kochia scoparia) [10] = assay: Test A postemergence; details: Bassia scoparia, post-emergence, 240 h, Postemergence, read-out: Plant response rating, Kochia
# How it was run: as §2
# corn (Zea mays) = assay: Test A postemergence; details: Zea mays, post-emergence, 240 h, Postemergence
# How it was run: as §2
# [11] = system: pigweed (Amaranthus retroflexus); assay: Test A postemergence; details: Amaranthus retroflexus, post-emergence, 240 h, Postemergence, read-out: Plant response rating, Pigweed
# How it was run: as §2
# [12] = system: wheat (Triticum aestivum); assay: Test A postemergence; details: Triticum aestivum, post-emergence, 240 h, Postemergence, read-out: Plant response rating, Wheat
# How it was run: as §2
# [13] = system: ryegrass, Italian (Italian ryegrass, Lolium multiflorum); assay: Test A preemergence; details: Lolium multiflorum, pre-emergence, 240 h, Preemergence
# How it was run: as §2
# [14] = system: ragweed (common ragweed, Ambrosia elatior); assay: Test A preemergence; details: Ambrosia artemisiifolia, pre-emergence, 240 h, Preemergence
# How it was run: as §2
# [15] = system: barnyardgrass (Echinochloa crus-galli); assay: Test A preemergence; details: Echinochloa crus-galli, pre-emergence, 240 h, Preemergence
# How it was run: as §2
# [16] = system: giant foxtail (Setaria faberii); assay: Test A preemergence; details: Setaria faberi, pre-emergence, 240 h, Preemergence
# How it was run: as §2
# Kochia (Kochia scoparia) [17] = assay: Test A preemergence; details: Bassia scoparia, pre-emergence, 240 h, Preemergence
# How it was run: as §2
# [18] = system: pigweed (Amaranthus retroflexus); assay: Test A preemergence; details: Amaranthus retroflexus, pre-emergence, 240 h, Preemergence
# [19] = 125 g ai/ha, visual injury after approximately 10 d, 0 to 100 scale where 0 is no effect and 100 is complete control
# [20] = 31 g ai/ha, visual injury after approx. 10 d, 0 to 100 scale, 0 no effect, 100 complete control
smiles,measurement,setting,value
O=C(Nc1cccc(F)c1F)[C@H]1C(=O)N(C2CC2)CC[C@@H]1c1ccc(F)cc1 [Compound 1003],pest or weed control at 250 g/ha,[1],0%
same,pest or weed control at 250 g/ha,[2],0%
same,pest or weed control at 250 g/ha,rice (Oryra sativa),0%
same,pest or weed control at 250 g/ha,[3],0%
same,pest or weed control at 125 g/ha,[4]; [19],0%
same,pest or weed control at 31 g/ha,[4]; [20],0%
same,pest or weed control at 125 g/ha,[5]; [19],0%
same,pest or weed control at 31 g/ha,[5]; [20],0%
same,pest or weed control at 125 g/ha,[6]; [19],0%
same,pest or weed control at 31 g/ha,[6]; [20],0%
same,pest or weed control at 125 g/ha,[7]; [19],0%
same,pest or weed control at 31 g/ha,[7]; [20],0%
same,pest or weed control at 125 g/ha,[8]; [19],0%
same,pest or weed control at 31 g/ha,[8]; [20],0%
same,pest or weed control at 125 g/ha,[9]; [19],0%
same,pest or weed control at 31 g/ha,[9]; [20],0%
same,pest or weed control at 125 g/ha,Kochia (Kochia scoparia) [10]; [19],0%
same,pest or weed control at 31 g/ha,Kochia (Kochia scoparia) [10]; [20],0%
same,"Corn plant response rating (crop injury, 0 = no effect, 100 = complete kill) at 125 g/ha",corn (Zea mays); [19],0%
same,"Corn plant response rating (crop injury, 0 = no effect, 100 = complete kill) at 31 g/ha",corn (Zea mays); [20],0%
same,pest or weed control at 125 g/ha,[11]; [19],0%
same,pest or weed control at 31 g/ha,[11]; [20],0%
same,plant injury at 125 g/ha,[12]; [19],0%
same,plant injury at 31 g/ha,[12]; [20],0%
same,pest or weed control at 31 g/ha,"[13]; 31 g ai/ha, 0 to 100 scale where 0 is no effect and 100 is complete control, read-out: Ryegrass, Italian plant response rating",0%
same,pest or weed control at 125 g/ha,"[13]; 125 g ai/ha, visual injury rating after approximately 10 d, read-out: Ryegrass, Italian plant response rating (0 to 100 scale, 0 is no effect, 100 is complete control)",0%
same,pest or weed control at 31 g/ha,"[14]; 31 g ai/ha, 0 to 100 scale where 0 is no effect and 100 is complete control, read-out: Ragweed plant response rating",0%
same,pest or weed control at 125 g/ha,"[14]; 125 g ai/ha, visual injury rating after approximately 10 d, read-out: Ragweed plant response rating (0 to 100 scale, 0 is no effect, 100 is complete control)",0%
same,pest or weed control at 125 g/ha,"[15]; 125 g ai/ha, visual injury rating after approximately 10 d, read-out: Barnyardgrass plant response rating (0 to 100 scale, 0 is no effect, 100 is complete control)",0%
same,pest or weed control at 31 g/ha,"[15]; 31 g ai/ha, 0 to 100 scale (0 no effect, 100 complete control), read-out: Plant response rating, Barnyardgrass",0%
same,pest or weed control at 125 g/ha,"[16]; 125 g ai/ha, visual injury rating after approximately 10 d, read-out: Foxtail, Giant plant response rating (0 to 100 scale, 0 is no effect, 100 is complete control)",60%
same,pest or weed control at 31 g/ha,"[16]; 31 g ai/ha, 0 to 100 scale (0 no effect, 100 complete control), read-out: Plant response rating, Foxtail, Giant",0%
same,pest or weed control at 31 g/ha,"Kochia (Kochia scoparia) [17]; 31 g ai/ha, 0 to 100 scale where 0 is no effect and 100 is complete control, read-out: Kochia plant response rating",0%
same,pest or weed control at 125 g/ha,"Kochia (Kochia scoparia) [17]; 125 g ai/ha, visual injury rating after approximately 10 d, read-out: Kochia plant response rating (0 to 100 scale, 0 is no effect, 100 is complete control)",0%
same,pest or weed control at 31 g/ha,"[18]; 31 g ai/ha, 0 to 100 scale where 0 is no effect and 100 is complete control, read-out: Pigweed plant response rating",0%
same,pest or weed control at 125 g/ha,"[18]; 125 g ai/ha, visual injury rating after approximately 10 d, read-out: Pigweed plant response rating (0 to 100 scale, 0 is no effect, 100 is complete control)",0%
